The values that follow come from patent US20060094698A1, “Self-administered contraceptive injection of oily solution” (priority 2002, published 2006).

Series [1] in a line: Solubility / appearance of solutions determined visually. Particulars: for solubility (visual) in all four tested solvents: desired concentration 50 mg/ml etonogestrel-undecanoate, 100 mg/ml MENT-undecanoate. As for the experimental part: (§1) Using these solvents, the following solutions were prepared: • 100 mg/ml etonogestrel undecanoate in the different solvents • 50 mg/ml etonogestrel undecanoate in the different solvents • 200 mg/ml MENT undecanoate in the different solvents • 100 mg/ml MENT undecanoate in the different solvents • 50 mg/ml etonogestrel undecanoate+100 mg/ml MENT undecanoate in the different solvents
(§2) The solubility of the compounds in the solvents was determined visually. The viscosity was determined using a Brookfield model DV-III. The density of the solutions was determined using a Mettler Toledo DA-100M density meter.

Series [2] is described as follows: Viscosity, Brookfield model DV-III. The format is physicochemical. As for the experimental part:
as §1, §2

Series [3] can be described thus: Density, Mettler Toledo DA-100M density meter. The format is physicochemical. As for the experimental part: as §1, §2
Series [4] in a line: Pharmacokinetics of etonogestrel esters after one i.m. injection in the rabbit (plasma etonogestrel by LC-MSMS). The format is in vivo. Particulars: for peak levels of etonogestrel: one i.m. injection 20 mg/kg in arachis oil (40 mg/ml), rabbit plasma. As for the experimental part: For the determination of the pharmacokinetic profile of the different etonogestrel-esters after parenteral application, i.m. application in the castrated rabbit model was chosen instead of s.c. Briefly, rabbits were injected once (day 1) with indicated etonogestrel-esters at 20 mg/kg in arachis oil (with a concentration of 40 mg/ml). At day 1, 2, 3, 4, 5, 6, 7, 8, 10, 12, 14, 21, 28, 35, 49, 63, 77, 92, 106, 120 and 133 blood was collected from the ear arteria, in EDTA-containing tubes. EDTA plasma was prepared (1500 g, 15 min) and stored at −20° C. With LC-MSMS, the amount of parent compound (etonogestrel) was determined in these samples. The lower limit of this new assay is 0.5 nmol/l, from 0-250 nmol/l a linear curve was obtained with a correlation coefficient of 0.9998.

Series [5] is described as follows: Pharmacokinetics of androgen esters after one s.c. injection in the castrated rabbit (plasma MENT or testosterone by LC-MSMS). Particulars: one s.c. injection 20 mg/kg in arachis oil (100 mg/ml). In kind it is in vivo. As for the experimental part: For the determination of the pharmacokinetic profile of the different androgen-esters after s.c. application, the castrated rabbit model was selected as the model which is most similar to humans. Briefly, rabbits were injected once (day 1) with indicated androgen-esters at 20 mg/kg in arachis oil (with a concentration of 100 mg/ml). At day 2, 3, 4, 5, 8, 15, 22, 36, 44 and 58 blood was collected from the ear arteria, in EDTA-containing tubes. EDTA plasma was prepared (1500 g, 15 min) and stored at −20° C. With LC-MSMS, the amount of parent compound (testosterone or MENT) was determined in these samples. The lower limit of this new assay is 2 nmol/l, from 0-500 nmol/I a linear curve was obtained with a correlation coefficient of 0.9998.

The conditions of series [6]: one IM injection, hypogonadal men, FIG. 5 (Nieschlag and Behre 1997); cited from earlier work.
[7] abbreviates: one i.m. injection 20 mg/kg in arachis oil, rabbit.
[8] abbreviates: solvent arachis oil + 50% benzyl benzoate, etonogestrel undecanoate 50 mg/ml and/or MENT undecanoate 100 mg/ml.
Where [9] appears, read: solvent arachis oil, etonogestrel undecanoate 50 mg/ml and/or MENT undecanoate 100 mg/ml.
Setting [10] is: solvent ethyl undecanoate + 50% benzyl benzoate, etonogestrel undecanoate 50 mg/ml and/or MENT undecanoate 100 mg/ml.
[11] abbreviates: solvent ethyl undecanoate, etonogestrel undecanoate 50 mg/ml and/or MENT undecanoate 100 mg/ml.

Structures are written as SMILES.

With `CCCCCCCCCCC(=O)OCC` [Ethyl undecanoate], the Appearance result in series [1] (solvent alone) was “Clear colourless solution”. The compound further had a Viscosity in series [2] (solvent alone) of 2.6. In series [3] (solvent alone), this compound returned a Density of 0.861.

For the compound `C#C[C@]1(OC(=O)CCCCCC)CC[C@H]2[C@@H]3CCC4=CC(=O)CC[C@@H]4[C@H]3C(=C)C[C@@]21CC` [Etonogestrel-heptanoate], the “peak levels of etonogestrel” value in series [4] was 120 nmol/L.

Consider `C#C[C@]1(OC(=O)CCCCCCCC)CC[C@H]2[C@@H]3CCC4=CC(=O)CC[C@@H]4[C@H]3C(=C)C[C@@]21CC` [Etonogestrel-nonanoate], for which the “peak levels of etonogestrel” value in series [4] is “lower peak levels”. Moreover, the “duration of action (etonogestrel levels above 1 nmol/l)” value in series [4] (setting [7]) is “extended duration”.

Take `CCCCCCCCCCC(=O)O[C@H]1CC[C@H]2[C@H]3[C@H](CC[C@]12C)[C@H]1CCC(=O)C=C1C[C@H]3C` [MENT-undecanoate]: the “heating temperature necessary to dissolve” value in series [1] (200 mg/ml in arachis oil) was “approximately 50 °C”. In addition, the “solubility (visual) in all four tested solvents” value in series [1] was “could be dissolved at two times the desired concentration”. Besides, the Appearance result in series [1] (setting [8]) is listed as “Clear yellowish solution”; in series [1] (setting [9]), “Clear yellowish solution”; in series [1] (setting [10]), “Clear colourless solution”; in series [1] (setting [11]), “Clear colourless solution”. The Viscosity is given as 35.0 cps in series [2] (setting [8]), 97.2 cps in series [2] (setting [9]), 6.1 cps in series [2] (setting [10]) and 4.0 cps in series [2] (setting [11]). Also, the Density in series [3] (setting [8]) was determined as 1.009 g/mL; in series [3] (setting [9]), 0.924 g/mL; in series [3] (setting [10]), 0.979 g/mL; in series [3] (setting [11]) it was 0.879 g/mL.

Regarding `CCCCCCC(=O)O[C@H]1CC[C@H]2[C@@H]3CCC4=CC(=O)CC[C@]4(C)[C@H]3CC[C@]12C` [Testosterone enanthate, testosterone enanthate], in series [5], the “pharmacokinetic profile of released MENT or testosterone” value is “high peak of testosterone”.

For the compound `C#CC1(OC(=O)CCCCCCCCC)CCC2C3CCC4=CC(=O)CCC4C3C(=C)CC21CC` (centres unmarked) [etonogestrel decanoate], in series [4], the “peak levels of etonogestrel” value was found to be 24 nmol/L. Also, the “time of initial peak level of etonogestrel” value in series [4] (setting [7]) came to 5 days.

For `C#C[C@]1(OC(=O)CCCCCCCCCCC)CC[C@H]2[C@@H]3CCC4=CC(=O)CC[C@@H]4[C@H]3C(=C)C[C@@]21CC` [etonogestrel dodecanoate], the “peak levels of etonogestrel” value in series [4] was determined as 9 nmol/L. In addition, the “time of initial peak level of etonogestrel” value in series [4] (setting [7]) was determined as 8 days.

In the case of `C#C[C@]1(OC(=O)CCCCCCCCCCCC)CC[C@H]2[C@@H]3CCC4=CC(=O)CC[C@@H]4[C@H]3C(=C)C[C@@]21CC` [etonogestrel tridecanoate], the “peak levels of etonogestrel” value in series [4] was “no initial levels of etonogestrel were observed”.

For `C#C[C@]1(OC(=O)CCCCCCCCCC)CC[C@H]2[C@@H]3CCC4=CC(=O)CC[C@@H]4[C@H]3C(=C)C[C@@]21CC` [etonogestrel undecanoate], the “peak levels of etonogestrel” value in series [4] was 13 nmol/L. Further, in series [4] (setting [7]), the “duration of action (etonogestrel levels above 1 nmol/l)” value is “more than 92 days”. Besides, in series [1], the “solubility (visual) in all four tested solvents” value is “could be dissolved at two times the desired concentration”. The Appearance entry in series [1] (setting [8]) is listed as “Clear yellowish solution”; in series [1] (setting [9]), “Clear yellowish solution”; in series [1] (setting [10]) it was “Clear colourless solution”; in series [1] (setting [11]), “Clear colourless solution”. The Viscosity in series [2] (setting [8]) is listed as 28.1 cps; in series [2] (setting [9]) it was 76.6 cps; in series [2] (setting [10]), 4.7 cps; in series [2] (setting [11]) it was 3.2 cps. For the same compound, the Density in series [3] (setting [8]) was determined as 1.006 g/mL; in series [3] (setting [9]), 0.919 g/mL; in series [3] (setting [10]), 0.978 g/mL; in series [3] (setting [11]), 0.870 g/mL.

For the compound `C#C[C@]1(O)CC[C@H]2[C@@H]3CCC4=CC(=O)CC[C@@H]4[C@H]3C(=C)C[C@@]21CC` [etonogestrel, (17α)-13-ethyl-17-hydroxy-11-methylene-18,19-dinorpregn-4-en-20-yn-3-one, reference compound], the “peak levels of etonogestrel” value in series [4] is 200 nmol/L. Besides, the “time in which etonogestrel levels declined to below 1 nmol/l” value in series [4] (setting [7]) came out at 28 days.

`CCCCCCCCCCC(=O)O[C@H]1CC[C@H]2[C@@H]3CCC4=CC(=O)CC[C@]4(C)[C@H]3CC[C@]12C` [testosterone undecanoate]: in series [6], the “pharmacokinetics of serum testosterone in humans” value is “low initial release and steady-state levels of long duration”.
